Reference: US8822464B2, “N-aryl-piperazine derivatives and their use as positive allosteric modulators of mGluR5 receptors” (Boehringer Ingelheim International GmbH, priority 2011, dated 2014)

Biological target: T1, human recombinant mGluR5 (Homo sapiens, UniProt P41594)
T1 construct: expressed in transfected cells; host or cells: HEK 293 cell line; cultured with tetracycline, hygromycin and geneticin; tetracycline withdrawn 3-7 days before the assay
Experiment: positive modulation of mGluR5, calcium based FLIPR assay in HEK 293 cells
Conditions: HEK 293 cell line expressing human recombinant mGluR5; peak height of Ca release fluorescence signal after glutamate at approximately 5% basal stimulation; nonlinear regression
Outline: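 HEK 293 cells expressing human mGluR5, tetracycline-free 3-7 days, Calcium-4 dye-loaded in Ringer solution pH 7.4; 1% DMSO final. Compound added 5 min before glutamate at ~5% of maximal effect; peak Ca2+ fluorescence normalized to basal glutamate (100%) and 10 μM CDPPB (200%); EC50 by nonlinear regression.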

T1 sequence (P41594 21-1212): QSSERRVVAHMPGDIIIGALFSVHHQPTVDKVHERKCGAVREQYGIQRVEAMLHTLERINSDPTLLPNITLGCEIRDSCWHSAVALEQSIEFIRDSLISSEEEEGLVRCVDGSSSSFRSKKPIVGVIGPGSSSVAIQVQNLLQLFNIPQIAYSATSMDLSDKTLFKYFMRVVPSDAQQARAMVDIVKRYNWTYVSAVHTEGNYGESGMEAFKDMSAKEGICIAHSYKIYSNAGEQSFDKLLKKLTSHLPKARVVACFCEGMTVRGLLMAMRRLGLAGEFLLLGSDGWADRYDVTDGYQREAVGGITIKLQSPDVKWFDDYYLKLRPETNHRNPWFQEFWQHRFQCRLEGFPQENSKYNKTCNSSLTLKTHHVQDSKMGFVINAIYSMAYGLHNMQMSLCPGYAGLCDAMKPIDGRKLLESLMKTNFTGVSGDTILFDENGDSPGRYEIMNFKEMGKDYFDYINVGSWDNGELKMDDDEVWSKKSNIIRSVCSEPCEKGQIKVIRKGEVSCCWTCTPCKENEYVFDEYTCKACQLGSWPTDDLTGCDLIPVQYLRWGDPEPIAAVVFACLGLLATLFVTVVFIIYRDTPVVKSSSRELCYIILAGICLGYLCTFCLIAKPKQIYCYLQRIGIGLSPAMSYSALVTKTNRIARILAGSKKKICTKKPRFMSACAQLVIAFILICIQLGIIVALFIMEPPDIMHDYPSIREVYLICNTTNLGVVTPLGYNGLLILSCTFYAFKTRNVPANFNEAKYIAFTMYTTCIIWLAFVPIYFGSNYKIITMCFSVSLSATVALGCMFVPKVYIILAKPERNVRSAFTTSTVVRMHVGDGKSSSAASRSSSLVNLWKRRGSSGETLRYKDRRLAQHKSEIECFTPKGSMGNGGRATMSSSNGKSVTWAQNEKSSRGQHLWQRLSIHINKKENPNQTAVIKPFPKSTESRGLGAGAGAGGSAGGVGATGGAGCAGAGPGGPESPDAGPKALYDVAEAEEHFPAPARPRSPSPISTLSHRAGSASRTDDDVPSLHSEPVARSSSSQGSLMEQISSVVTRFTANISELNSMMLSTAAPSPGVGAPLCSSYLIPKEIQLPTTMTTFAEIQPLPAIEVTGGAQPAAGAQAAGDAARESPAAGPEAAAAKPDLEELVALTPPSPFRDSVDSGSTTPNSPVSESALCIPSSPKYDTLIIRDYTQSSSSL

Compound | EC50 [µM]
Cc1cc(-c2cc(-c3ccccc3)n(CC(=O)N3CCN(c4ncccn4)CC3)n2)ncc1F [Example 7.01.157] | 0.035
N#Cc1ccc(N2CCN(C(=O)Cn3nc(-c4ccccc4)cc3-c3ccccc3)CC2)nc1 [Example 7.02.08] | 0.934
N#Cc1cccnc1N1CCN(C(=O)Cn2nc(-c3ccccc3)cc2-c2ccccc2)CC1 [Example 7.02.09] | 0.298
CCc1cccc(-c2cc(CC)n(CC(=O)N3CCN(c4ncc(F)cn4)CC3)n2)c1 [Example 7.01.130] | 0.471
O=C(Cn1nc(-c2ccc(F)cn2)cc1-c1ccc(F)cc1)N1CCN(c2ncccn2)CC1 [Example 7.01.62] | 0.048
CCc1cccc(-c2cc(CC)n(CC(=O)N3CCN(c4ncccn4)CC3)n2)c1 [Example 7.01.131] | 0.059
CCc1cccc(-c2cc(CC)n(CC(=O)N3CCN(c4ccccn4)CC3)n2)c1 [Example 7.01.128] | 0.204
COc1cccc(N2CCN(C(=O)Cn3nc(-c4ccc(F)c(C)c4)cc3-c3ccccc3)CC2)c1 [Example 7.01.144] | 0.057
CCc1cc(-c2ccc(C)c(C)c2)nn1CC(=O)N1CCN(c2cc(OC)ccn2)CC1 [Example 7.01.92] | 0.302
CCc1cc(-c2ccc(C)c(C)c2)nn1CC(=O)N1CCN(c2ncc(OC)cn2)CC1 [Example 7.01.99] | 0.129
COc1cnc(N2CCN(C(=O)Cn3nc(-c4ccc(F)c(C)c4)cc3CC(C)C)CC2)nc1 [Example 7.01.123] | 0.036
O=C(Cn1nc(-c2ccccc2)cc1-c1ccccc1)N1CCN(c2cccnc2)CC1 [Example 7.02.02] | 0.428
CCc1cc(-c2ccc(C)c(C)c2)nn1CC(=O)N1CCN(c2ncccn2)CC1 [Example 7.01.87] | 0.069
CCc1cc(-c2cccc(Cl)c2)nn1CC(=O)N1CCN(c2cc(OC)ncn2)CC1 [Example 7.01.116] | 0.089
COc1ccc(-c2cc(C(C)C)n(CC(=O)N3CCN(c4cc(C)ccn4)CC3)n2)cc1C [Example 7.01.52] | 0.431
CCc1cc(-c2ccc(F)c(C)c2)nn1CC(=O)N1CCN(c2ncccn2)CC1 [Example 7.01.70] | 0.041
COc1cc(-c2cc(-c3ccccc3)n(CC(=O)N3CCN(c4ccccn4)CC3)n2)ccc1F [Example 7.01.151] | 0.019

Next, values leading:

EC50 [µM] | Compound
0.75 | N#Cc1ccccc1N1CCN(C(=O)Cn2nc(-c3ccccc3)cc2-c2ccccc2)CC1 [Example 7.01.10]
0.079 | CCc1cc(-c2ccc(F)c(C)c2)nn1CC(=O)N1CCN(c2ccccn2)CC1 [Example 7.01.69]
0.253 | O=C(Cn1nc(-c2ccc(F)cc2)cc1-c1ccc(F)cn1)N1CCN(c2ncccn2)CC1 [Example 7.01.65]
0.138 | Cc1cc(-c2cc(C(C)C)n(CC(=O)N3CCN(c4ccccn4)CC3)n2)ccc1F [Example 7.01.26]
0.168 | CCc1cc(-c2cccc(C)c2)nn1CC(=O)N1CCN(c2cc(OC)ccn2)CC1 [Example 7.01.96]
0.49 | CCc1cc(-c2cccc(C#N)c2)nn1CC(=O)N1CCN(c2cc(OC)ncn2)CC1 [Example 7.01.163]
0.079 | Cc1ccnc(N2CCN(C(=O)Cn3nc(-c4ccc(F)c(C)c4)cc3C(C)C)CC2)c1 [Example 7.01.24]
0.208 | Cc1cc(-c2cc(C(C)C)n(CC(=O)N3CCN(c4ncc(F)cn4)CC3)n2)ccc1F [Example 7.01.31]
0.099 | Cc1cc(-c2cc(-c3ccccc3)nn2CC(=O)N2CCN(c3ccccn3)CC2)ccc1F [Example 7.01.06]
0.393 | COc1ccc(-c2cc(C(C)C)n(CC(=O)N3CCN(c4ccccn4)CC3)n2)cc1C [Example 7.01.56]
0.696 | O=C(Cn1nc(-c2ccccc2F)cc1-c1ccccc1F)N1CCN(c2ncccn2)CC1 [Example 7.04.01]
0.285 | COc1cccc(-c2cc(C3CCCCC3)n(CC(=O)N3CCN(c4ccccn4)CC3)n2)c1 [Example 7.01.18]
0.442 | CCCc1cc(-c2ccc(F)c(C)n2)nn1CC(=O)N1CCN(c2ncccn2)CC1 [Example 7.01.185]
